Results from patent US20100093993A1 (priority 2007, published 2010).

Assays:
rabbit neutrophil [1] = experiment: Influence on rabbit neutrophil H2O2 production (H2DCFDA fluorescence); type: cell-based; settings: 2 hours at 37° C., rabbit neutrophils
Method: The neutrophils (1.0×10^5 cells/100 μl) were inoculated in a 96-well plate (Falcon).

[2] = system: Clostridium perfringens (Type A NTCT8237); type: in vivo, ICR mice; settings: emulsion solution 100 mg/mouse, 3 hours before C. perfringens 2.4×10^7 cells/mouse
rabbit neutrophil [3] = experiment: Influence on the phagocytic action of neutrophils (opsonized ampicillin resistant E. coli, colony count); settings: neutrophils treated 1 hour, then opsonized E. coli 1 hour
[4] = system: intraperitoneal macrophage cells of a mouse; experiment: Measurement of macrophage activity: nitrite ion concentration (NO release, Griess reagent); type: cell-based; settings: test compound 50 μM; for Nitrite Ion Concentration Relative Value: relative to TDCM = 1.0, 48 hours; for Nitrite Ion Concentration Actual Value: cultured 48 hours, mouse peritoneal macrophages, mean ± S.E.
Method: Macrophage activation indicates the condition wherein the adhesion to the tissue and the motility of the macrophages are improved, so that bacteria entering from outside or denatured self-components are phagocytized. Macrophage activity can be measured using the release of cytokine or active oxygen as an index. In Experimental Example 1 below, the macrophage activation ability was measured using the nitrite ion concentration as an index.
The present experiment was conducted with reference to the method described in Sakurai T., Kaise T., Matsubara C. Chem. Res. Toxicol. 1998, 11, 273-283. Specifically, ICR male mice (6 to 7 weeks old) were anesthetized, a phosphate buffer containing 0.05% EDTA was injected intraperitoneally, an intraperitoneal lavage was performed, and a peritoneal macrophage was aseptically recovered. After the cells were washed with an RPMI-1640 medium (containing 10% bovine fetal serum), the macrophage cells were inoculated so that there were 1×10^5 cells/100 μl in each well of the 96-well plate. After being pre-incubated for 2 hours, the test compound (50 μM) was added to the culture medium, and cultured for 48 hours. Afterwards, a Griess test reagent was added to the culture medium, which was allowed to stand for 10 minutes; the absorbency thereof was measured with a microplate reader (filter: 550/630 nm), after which the nitrite ion concentration (NO2^−) was determined from a calibration curve. The reproducibility of the above-described test was confirmed by 3 wells, the experiment was repeated at least three times using different mice, and the mean values ±S.E. were determined.

SMILES	H2O2 production (rabbit neutrophil [1]; 50 μM) [nmol/10^5 Cells]	H2O2 production (rabbit neutrophil [1]; 100 μM) [nmol/10^5 Cells]	The number surviving/Administered group After 2 hr [2]	The number surviving/Administered group After 6 hr [2]	The number surviving/Administered group After 12 hr [2]	The number surviving/Administered group After 24 hr [2]	The number surviving/Administered group after 48 hr [2]	The number of colonies (rabbit neutrophil [3]; 50 μM)	The number of colonies (rabbit neutrophil [3]; 100 μM)	Nitrite Ion Concentration Relative Value [4]	Nitrite Ion Concentration Actual Value [4] [nM]
CCCCCCCCCCC(CCCCCCCCCC)C(=O)NCC1O[C@H](O[C@H]2OC(CNC(=O)C(CCCCCCCCCC)CCCCCCCCCC)[C@@H](O)C(O)C2O)C(O)C(O)[C@@H]1O (stereo partly drawn) [Ex. 1, 6,6′-bis-N-(2-decyldodecanoylamino)-6,6′-dideoxy-α,α′-trehalose]	0.33 ± 0.05	0.38 ± 0.05	4/4	4/4	4/4	4/4	4/4	250 ± 11	487 ± 20	0.4	200 ± 133
CCCCCCCCCCCC(CCCCCCCCCCC)C(=O)NCC1O[C@H](O[C@H]2OC(CNC(=O)C(CCCCCCCCCCC)CCCCCCCCCCC)[C@@H](O)C(O)C2O)C(O)C(O)[C@@H]1O (stereo partly drawn) [Ex. 2, 6,6′-bis-N-(2-undecyltridecanoylamino)-6,6′-dideoxy-α,α′-trehalose]	0.25 ± 0.02	0.26 ± 0.02	–	–	–	–	–	89 ± 21	172 ± 13	3.9	1973 ± 973
CCCCCCCCCCCCC(CCCCCCCCCCCC)C(=O)NCC1O[C@H](O[C@H]2OC(CNC(=O)C(CCCCCCCCCCCC)CCCCCCCCCCCC)[C@@H](O)C(O)C2O)C(O)C(O)[C@@H]1O (stereo partly drawn) [Ex. 3, 6,6′-bis-N-(2-dodecyltetradecanoylamino)-6,6′-dideoxy-α,α′-trehalose]	0.18 ± 0.03	0.20 ± 0.03	–	–	–	–	–	58 ± 9	112 ± 15	2.4	1202 ± 647
CCCCCCCCCCCCCC(CCCCCCCCCCCCC)C(=O)NCC1O[C@H](O[C@H]2OC(CNC(=O)C(CCCCCCCCCCCCC)CCCCCCCCCCCCC)[C@@H](O)C(O)C2O)C(O)C(O)[C@@H]1O (stereo partly drawn) [Ex. 4, 6,6′-bis-N-(2-tridecylpentadecanoylamino)-6,6′-dideoxy-α,α′-trehalose]	0.15 ± 0.02	0.18 ± 0.02	4/4	4/4	4/4	4/4	4/4	200 ± 15	350 ± 30	7.6	3676 ± 385
CCCCCCCCCCCCCCC(CCCCCCCCCCCCCC)C(=O)NCC1O[C@H](O[C@H]2OC(CNC(=O)C(CCCCCCCCCCCCCC)CCCCCCCCCCCCCC)[C@@H](O)C(O)C2O)C(O)C(O)[C@@H]1O (stereo partly drawn) [Ex. 5, 6,6′-bis-N-(2-tetradecylhexadecanoylamino)-6,6′-dideoxy-α,α′-trehalose]	0.26 ± 0.04	0.29 ± 0.04	4/4	4/4	4/4	4/4	4/4	250 ± 16	450 ± 31	8.8	4419 ± 4250
CCCCCCCCCCCCCCCC(CCCCCCCCCCCCCCC)C(=O)NCC1O[C@H](O[C@H]2OC(CNC(=O)C(CCCCCCCCCCCCCCC)CCCCCCCCCCCCCCC)[C@@H](O)C(O)C2O)C(O)C(O)[C@@H]1O (stereo partly drawn) [Ex. 6, 6,6′-bis-N-(2-pentadecylheptadecanoylamino)-6,6′-dideoxy-α,α′-trehalose]	0.11 ± 0.03	0.16 ± 0.03	–	–	–	–	–	120 ± 11	220 ± 12	1.7	851 ± 608
CCCCCCCCCCCCCCCCC(CCCCCCCCCCCCCCCC)C(=O)NCC1O[C@H](O[C@H]2OC(CNC(=O)C(CCCCCCCCCCCCCCCC)CCCCCCCCCCCCCCCC)[C@@H](O)C(O)C2O)C(O)C(O)[C@@H]1O (stereo partly drawn) [Ex. 7, 6,6′-bis-N-(2-hexadecyloctadecanoylamino)-6,6′-dideoxy-α,α′-trehalose]	0.10 ± 0.03	0.15 ± 0.02	–	–	–	–	–	110 ± 7	200 ± 8	0.6	300 ± 229
CCCCCCCCCCCCCCC[C@@H](O)[C@@H](CCCCCCCCCCCCCC)C(=O)OCC1O[C@H](O[C@H]2OC(COC(=O)[C@H](CCCCCCCCCCCCCC)[C@H](O)CCCCCCCCCCCCCCC)[C@@H](O)[C@H](O)C2O)C(O)[C@@H](O)[C@@H]1O (some centres unmarked) [TDCM, trehalose 6,6′-dicorynomycolate, reference compound]	0.18 ± 0.02	0.21 ± 0.02	4/4	4/4	4/4	4/4	4/4	50 ± 10	87 ± 10	1.0	500 ± 271
